Test results from ChEMBL document CHEMBL1150587, “Evaluation of the potential cancer chemotherapeutic efficacy of natural product isolates employing in vivo hollow fiber tests” (J Nat Prod, 2002).
Each block holds one compound with its values, some of them ahead of it. Calls of active or inactive are those of the source. No cut-off for these calls is given here.

Assays:
[1] = Cytotoxicity against human KBV1 cells after 72 hrs by SRB assay; type: functional, cell-based; settings: KB-V1, 72 h
[2] = test system: LNCaP; assay: Cytotoxicity against human LNCAP cells after 72 hrs by SRB assay; type: functional, cell-based
[3] = test system: Col2; assay: Cytotoxicity against human Col2 cells after 72 hrs by SRB assay; type: functional, cell-based; settings: Col2, 72 h
[4] = test system: Lu1; assay: Growth inhibition of human Lu1 cells implanted intraperitoneally to NCr nu/nu mouse at15.5 to 124 umol/kg, ip administered from day 3 to 6 after implantation measured on day 7 by MTT-based hollow-fiber test; type: functional
[5] = test system: Lu1; assay: Cytotoxicity against human Lu1 cells after 72 hrs by SRB assay; type: functional, cell-based; settings: Lu1, 72 h
[6] = test system: Mus musculus; assay: Toxicity in human Lu1 cells implanted NCr nu/nu mouse at 516 umol/kg, ip administered from day 3 to 6 after implantation measured on day 7 by hollow-fiber test; type: organism-based; settings: in vivo
[7] = test system: MCF7; assay: Cytotoxicity against human MCF7 cells after 72 hrs by SRB assay; settings: MCF7, 72 h
[8] = test system: SW626; assay: Cytotoxicity against human SW626 cells after 72 hrs by SRB assay; type: functional, cell-based; settings: SW626, 72 h
[9] = test system: P388; assay: Cytotoxicity against mouse P388 cells after 72 hrs by SRB assay; type: functional, cell-based; settings: P388, 72 h
[10] = test system: Lu1; assay: Growth inhibition of human Lu1 cells implanted subcutaneously to NCr nu/nu mouse at15.5 to 124 umol/kg, ip administered from day 3 to 6 after implantation measured on day 7 by MTT-based hollow-fiber test; type: functional
[11] = test system: SK-MEL-2; assay: Cytotoxicity against human SK-MEL-2 cells after 72 hrs by SRB assay; type: functional, cell-based; settings: SK-MEL-2, 72 h
[12] = test system: Mus musculus; assay: Toxicity in human Lu1 cells implanted NCr nu/nu mouse assessed as body weight loss at 252 umol/kg, ip administered from day 3 to 6 after implantation measured on day 7 by hollow-fiber test; type: organism-based; settings: in vivo
[13] = Cytotoxicity against human BC1 cells after 72 hrs by SRB assay; settings: BC1, 72 h
[14] = test system: KB; assay: Cytotoxicity against human KB cells after 72 hrs by SRB assay; type: functional, cell-based
[15] = test system: Mus musculus; assay: Toxicity in NCr nu/nu mouse subcutaneously implanted with human Lu1 cells assessed as body weight change at 15.5 to 124 umol/kg, ip administered from day 3 to 6 after implantation measured on day 7; type: organism-based; settings: in vivo
[16] = test system: LNCaP; assay: Growth inhibition of human LNCAP cells implanted subcutaneously to NCr nu/nu mouse at 72.6 to 290.7 umol/kg, ip administered from day 3 to 6 after implantation measured on day 7 by MTT-based hollow-fiber test; type: functional
[17] = test system: KB; assay: Growth inhibition of ip dosed intraperitoneally implanted human KB cells to NCr nu/nu mouse administered from day 3 to 6 after implantation measured on day 7 by MTT-based hollow-fiber test; type: functional, organism-based
[18] = test system: LNCaP; assay: Growth inhibition of human LNCAP cells implanted intraperitoneally to NCr nu/nu mouse at 72.6 to 290.7 umol/kg, ip administered from day 3 to 6 after implantation measured on day 7 by MTT-based hollow-fiber test; type: functional
[19] = test system: Mus musculus; assay: Toxicity in tumor cell implanted NCr nu/nu mouse assessed as body weight change at 290.7 umol/kg, ip administered from day 3 to 6 after implantation measured on day 7; type: organism-based; settings: in vivo
[20] = test system: Mus musculus; assay: Toxicity in NCr nu/nu mouse subcutaneously implanted with human KB cells assessed as change in body weight at 145.3 umol/kg, ip administered on day 10, 13, 16, 20 of implantation; type: organism-based; settings: in vivo
[21] = test system: Mus musculus; assay: Toxicity in NCr nu/nu mouse subcutaneously implanted with human KB cells assessed as mortality at 145.3 umol/kg, ip administered on day 10, 13, 16, 20 of implantation; type: organism-based; settings: in vivo
[22] = test system: Mus musculus; assay: Toxicity in tumor cell implanted NCr nu/nu mouse assessed as body weight change at 72.6 umol/kg, ip administered from day 3 to 6 after implantation measured on day 7; type: organism-based; settings: in vivo
[23] = test system: Mus musculus; assay: Toxicity in tumor cell implanted NCr nu/nu mouse assessed as body weight change at 145.3 umol/kg, ip administered from day 3 to 6 after implantation measured on day 7; type: organism-based; settings: in vivo
[24] = test system: MCF7; assay: Growth inhibition of human MCF7 cells implanted intraperitoneally to NCr nu/nu mouse at 72.6 to 290.7 umol/kg, ip administered from day 3 to 6 after implantation measured on day 7 by MTT-based hollow-fiber test; type: functional
[25] = test system: Mus musculus; assay: Toxicity in NCr nu/nu mouse subcutaneously implanted with human KB cells assessed as mortality at 72.6 umol/kg, ip administered on day 10, 13, 16, 20 of implantation; type: organism-based; settings: in vivo
[26] = test system: Mus musculus; assay: Toxicity in NCr nu/nu mouse subcutaneously implanted with human KB cells assessed as change in body weight at 72.6 umol/kg, ip administered on day 10, 13, 16, 20 of implantation; type: organism-based; settings: in vivo
[27] = test system: P388; assay: Growth inhibition of mouse P388 cells implanted intraperitoneally to NCr nu/nu mouse at 72.6 to 290.7 umol/kg, ip administered from day 3 to 6 after implantation measured on day 7 by MTT-based hollow-fiber test; type: functional
[28] = test system: Mus musculus; assay: Toxicity in NCr nu/nu mouse subcutaneously implanted with human KB cells assessed as change in body weight at 290.7 umol/kg, ip administered on day 10, 13, 16, 20 of implantation; type: organism-based; settings: in vivo
[29] = test system: Mus musculus; assay: Toxicity in NCr nu/nu mouse subcutaneously implanted with human KB cells assessed as mortality at 290.7 umol/kg, ip administered on day 10, 13, 16, 20 of implantation; type: organism-based; settings: in vivo
[30] = test system: SK-MEL-2; assay: Growth inhibition of ip dosed subcutaneously implanted human SK-MEL-2 cells to NCr nu/nu mouse administered from day 3 to 6 after implantation measured on day 7 by MTT-based hollow-fiber test; type: functional, organism-based
[31] = test system: SK-MEL-2; assay: Growth inhibition of ip dosed intraperitoneally implanted human SK-MEL-2 cells to NCr nu/nu mouse administered from day 3 to 6 after implantation measured on day 7 by MTT-based hollow-fiber test; type: functional, organism-based
[32] = test system: SK-MEL-2; assay: Growth inhibition of human SK-MEL-2 cells implanted subcutaneously to NCr nu/nu mouse at 72.6 to 290.7 umol/kg, ip administered from day 3 to 6 after implantation measured on day 7 by MTT-based hollow-fiber test; type: functional
[33] = test system: Lu1; assay: Growth inhibition of human Lu1 cells implanted intraperitoneally to NCr nu/nu mouse at 72.6 to 290.7 umol/kg, ip administered from day 3 to 6 after implantation measured on day 7 by MTT-based hollow-fiber test; type: functional
[34] = test system: SW626; assay: Growth inhibition of human SW626 cells implanted subcutaneously to NCr nu/nu mouse at 72.6 to 290.7 umol/kg, ip administered from day 3 to 6 after implantation measured on day 7 by MTT-based hollow-fiber test; type: functional
[35] = test system: KB; assay: Growth inhibition of ip dosed subcutaneously implanted human KB cells to NCr nu/nu mouse administered from day 3 to 6 after implantation measured on day 7 by MTT-based hollow-fiber test; type: functional, organism-based
[36] = test system: KB; assay: Growth inhibition of human KB cells implanted intraperitoneally to NCr nu/nu mouse at 72.6 to 290.7 umol/kg, ip administered from day 3 to 6 after implantation measured on day 7 by MTT-based hollow-fiber test; type: functional
[37] = test system: KB; assay: Growth inhibition of human KB cells implanted subcutaneously to NCr nu/nu mouse at 72.6 to 290.7 umol/kg, ip administered from day 3 to 6 after implantation measured on day 7 by MTT-based hollow-fiber test; type: functional
[38] = test system: MCF7; assay: Growth inhibition of human MCF7 cells implanted subcutaneously to NCr nu/nu mouse at 72.6 to 290.7 umol/kg, ip administered from day 3 to 6 after implantation measured on day 7 by MTT-based hollow-fiber test; type: functional
[39] = test system: KB; assay: Growth inhibition of human KB cells implanted subcutaneously to NCr nu/nu mouse assessed as tumor size at 72.6 to 290.7 umol/kg, ip administered on day 10, 13, 16, 20 of implantation; type: functional, organism-based
[40] = test system: SK-MEL-2; assay: Growth inhibition of human SK-MEL-2 cells implanted intraperitoneally to NCr nu/nu mouse at 72.6 to 290.7 umol/kg, ip administered from day 3 to 6 after implantation measured on day 7 by MTT-based hollow-fiber test; type: functional
[41] = test system: P388; assay: Growth inhibition of mouse P388 cells implanted subcutaneously to NCr nu/nu mouse at 72.6 to 290.7 umol/kg, ip administered from day 3 to 6 after implantation measured on day 7 by MTT-based hollow-fiber test; type: functional
[42] = test system: Lu1; assay: Growth inhibition of human Lu1 cells implanted subcutaneously to NCr nu/nu mouse at 72.6 to 290.7 umol/kg, ip administered from day 3 to 6 after implantation measured on day 7 by MTT-based hollow-fiber test; type: functional
[43] = test system: SW626; assay: Growth inhibition of human SW626 cells implanted intraperitoneally to NCr nu/nu mouse at 72.6 to 290.7 umol/kg, ip administered from day 3 to 6 after implantation measured on day 7 by MTT-based hollow-fiber test; type: functional
[44] = test system: P388; assay: Cytotoxicity against mouse P388 cells; type: functional, cell-based
[45] = test system: KB; assay: Growth inhibition of human KB cells implanted intraperitoneally to NCr nu/nu mouse at 553.1 umol/kg, ip administered from day 3 to 6 after implantation measured on day 7 by MTT-based hollow-fiber test; type: functional
[46] = Inhibition of protein farnesyltransferase
[47] = test system: KB; assay: Growth inhibition of human KB cells implanted subcutaneously to NCr nu/nu mouse at 553.1 umol/kg, ip administered from day 3 to 6 after implantation measured on day 7 by MTT-based hollow-fiber test; type: functional
[48] = test system: Mus musculus; assay: Toxicity in NCr nu/nu mouse subcutaneously implanted with human KB cells assessed as body weight change at 553.1 umol/kg, ip administered from day 3 to 6 after implantation measured on day 7; type: organism-based; settings: in vivo

SMILES: CC(O)c1cc2c(o1)C(=O)c1ccccc1C2=O (stereo not drawn)
IC50 [1]: 4.9 µM | IC50 [2]: 14.5 µM | IC50 [3]: 7.4 µM | inhibition (INH) [4]: 0% | IC50 [5]: 0.8 µM | Activity [6]: Toxic | IC50 [7]: 2.5 µM | IC50 [8]: 1.2 µM | IC50 [9]: 0.4 µM | inhibition (INH) [10]: 0% | IC50 [11]: 1.2 µM | Activity [12]: Toxic | IC50 [13]: 13.2 µM | IC50 [14]: 2.1 µM | Activity [15]: -0.4 g

SMILES: C=C1C(=O)[C@@]23CC[C@@H]4[C@@]5(C)CCC[C@@]4(OC5=O)[C@@]2(C)CC[C@]1(OC)C3
IC50 [1]: 5.2 µM | IC50 [2]: 1.2 µM | IC50 [3]: 3.8 µM | inhibition (INH) [16]: 0% | Activity [17]: Dose-dependent effect | inhibition (INH) [18]: 50.6% | Activity [19]: 0.85 g | Activity [20]: 7.6% | IC50 [5]: 2 µM | Activity [21]: Non-toxic | Activity [22]: 0.74 g | Activity [23]: 0.03 g | IC50 [7]: 0.9 µM | inhibition (INH) [24]: 34.4% | Activity [25]: Non-toxic | IC50 [8]: 0.6 µM | Activity [26]: 7.9% | inhibition (INH) [27]: 0% | Activity [28]: 6.6% | Activity [29]: Non-toxic | IC50 [9]: 0.3 µM | Activity [30]: Dose-dependent effect | IC50 [11]: 1.2 µM | Activity [31]: Dose-dependent effect | inhibition (INH) [32]: 11.1% | inhibition (INH) [33]: 0% | inhibition (INH) [34]: 16.3% | Activity [35]: Dose-dependent effect | IC50 [13]: 3.5 µM | inhibition (INH) [36]: 21.6% | IC50 [14]: 6.4 µM | inhibition (INH) [37]: 5.7% | inhibition (INH) [38]: 0% | Activity [39]: Active | inhibition (INH) [40]: 15.5% | inhibition (INH) [41]: 0% | inhibition (INH) [42]: 0% | inhibition (INH) [43]: 0%

IC50 [46]: 2.2 µM
SMILES: C=C1C(=O)O[C@@H]2C[C@]3(C)CC[C@]4(C)[C@H](CC[C@@H]5[C@@]6(C)CCC(=O)C(C)(C)[C@@H]6CC[C@]54C)[C@H]3[C@H]12 [OCHRACEOLIDE A]
IC50 [1]: > 44.2 µM | IC50 [2]: 13.1 µM | IC50 [3]: 19.2 µM | IC50 [44]: 0.58 µM | IC50 [5]: 24.3 µM | IC50 [7]: 16.6 µM | inhibition in vivo at 553.1 µmol/kg [45]: 0% | IC50 [8]: 35.4 µM | inhibition in vivo at 553.1 µmol/kg [47]: 0% | IC50 [9]: 3.5 µM | IC50 [11]: 14.8 µM | Activity [48]: 0.5 g | IC50 [13]: 32.3 µM | IC50 [14]: 20.4 µM
